Test results from patent US20240285769A1, “INJECTABLE, BIODEGRADABLE AND REMOVABLE POLYMER BASED DRUG SUSPENSION FOR ULTRA-LONG-ACTING DRUG DELIVERY” (The University of North Carolina at Chapel Hill, priority 2021, published 2024).
Where a name gives a salt, the structure may show the parent alone.

What was measured:
[1] = Preparation and optimization of drug suspension formulations; type: physicochemical; settings: for depot formation when injected into aqueous release medium: PBS, pH 7.4, 37° C.
Description: The polymer based drug suspensions were prepared by: (1) Placebo formulation: 50:50 Poly(DL-lactide-co-glycolide) (PLGA), MW 10 or 27 kDa, or Poly(lactic acid) (PLA) MW 10 kDa, was mixed with N-methyl-2-pyrrolidone (NMP) or a combination of NMP and DMSO (e.g. 1:1 v/v) at various weight ratios of PLGA/solvent (w/w) and allowed to dissolve by continuous mixing at room temperature (Placebo). […] (2) Drug loading: […] (3) Depot formation: A sample from the resulting drug-loaded suspension formulation (30 μL, 30±3 mg) was injected into 200 mL of 0.01 M PBS pH 7.4 using a pipette and incubated at 37° C. for 24 h to produce a spherical implant, as an example. […] Of importance, but without being limited to any particular theory or mechanism of action, is the ratio of the polymer:solvent:drug that achieves high drug loading in a stable polymeric suspension formulation and which is correlated to the drug's saturation solubility in the solvent system.

[2] = CAB MPT ISFI in vitro release studies; type: physicochemical; settings: for in vitro release as single-drug ISFI versus co-formulated: CAB with either hormone, MPA or ENG with CAB (ENG up to 60 days)
Description: Drug release kinetics from various implant formulations was evaluated by incubating solid implants (25 mg±5 mg) into 200 mL of release medium under sink conditions (0.01 M PBS pH 7.4 with 2% solutol HS) at 37° C. for up to 6 months. Sample aliquots (1 mL) were collected at various time points and replaced with fresh release medium. The release medium was completely removed and replaced with fresh medium every week to maintain sink conditions. Drug concentration in the release samples was quantified by HPLC using the method described above. Cumulative drug release was calculated from the HPLC analysis and normalized to the total mass of drug in the implant. All experiments were performed in quadruplicate.
In vitro release of single-drug ISFIs vs. MPT ISFIs were evaluated to assess drug-drug interactions. All ISFI liquid suspensions were stable and homogenous, elicited <15% burst release, sustained release for 90 days, and above target release rates.

[3] = published CAB population PK model, mean parameter; cited from earlier work
[4] = Drug saturation solubility studies; type: physicochemical; settings: for solubility: 21 °C, thermodynamic from solid
Description: The saturation concentration of each drug in various solvents and/or solvent combinations was determined. Drugs were then formulated in ISFI formulations containing 1:1, 1:1.5, 1:2, or 1:4 w/w ratios of PLGA/solvent, as exemplary starting points. For example, for DTG, 25 mg of DTG was added to individual vials containing 100 mg of solvent or PLGA/N-MP placebo ISFI solution. The mixture was mixed thoroughly using a vortex with short-warming for several cycles, and stirred at room temperature (RT), e.g. about 20-22° C., for about 24-48 h. Samples were subsequently centrifuged for 30 min at 13,000 rpm (Eppendorf Centrifuge 5417C, USA) to remove excess undissolved drug. Sample aliquots (1 mg, n=4) were collected from the saturated supernatant and diluted with acetonitrile (ACN). Drug concentration in the saturated aliquots was determined by HPLC analysis.
A reverse-phase HPLC analysis was carried out with a Finnigan Surveyor HPLC system (Thermo Finnigan, San Jose, California, USA) with a Photodiode Array (PDA) Plus Detector, auto-sampler, and LC Pump Plus. The stationary phase utilized for the analysis was a Inertsil ODS-3 column (4 μm, 4.6 Å˜150 mm, [GL Sciences, Torrance, CA]) maintained at 40° C. Chromatographic separation was achieved by gradient elution using a mobile phase consisting of 0.1% trifluoroacetic acid in water and ACN (H2O/ACN 95:5 v/v). The flow rate was 1.0 mL/min and the total run time was 25 min for each 25 μL injection.

[5] = In vivo pharmacokinetics of MPT ISFI formulations; parameters: species or system mice
Description: FIGS. 18A to 18E. Drug concentrations in plasma of MPT ISFI formulations. Plasma concentrations of (FIG. 18A) DTG (278 mg/kg, 50 μL injection) when co-formulated with MPA or ENG (n=6-12/timepoint per group), (FIG. 18B) CAB (1215 mg/kg, 50 μL injection) when co-formulated with MPA or ENG (n=6-12/timepoint per group), (FIG. 18C) MPA (70-76 mg/kg, 50 μL injection) when co-formulated with DTG or CAB (n=6-12/timepoint per group), and (FIG. 18D) ENG (70-151 mg/kg, 50 μL injection) when co-formulated with DTG or CAB (n=6-12/timepoint per group). […] (FIG. 18E) R^2 values for mathematical models of zero-order, first-order, and diffusion-controlled (Higuchi) release.
Pharmacokinetic (PK) studies were carried out in mice over 90 days to assess in vivo drug release of MPT ISFI formulations. DTG, CAB, ENG, and MPA plasma concentrations were quantified using a high-performance liquid chromatography-tandem mass spectrometry LC/MS-MS method and were plotted over 90 days (FIG. 18).
Moreover, the release kinetics of DTG, CAB, MPA, and ENG were assessed against three mathematical models (zero-order, first-order, and diffusion-controlled (Higuchi) (Gouda, Baishya et al. 2017)).

[6] = test system: HIV; settings: protein-adjusted, cited from earlier work; for 4×PA-IC90: benchmark for protection
[7] = Suspension stability studies; type: physicochemical; settings: polymer:solvent 1:2
Description: Eight (8) formulations were prepared and evaluated for stability. The formulations were placed in a water bath at 37° C. with shaking overnight and then vortexed for about 2 min upon removal. Sample aliquots (about 1 mg, n=4) were collected from each formulation and analyzed by HPLC to determine drug homogeneity distribution within the formulation. All suspension formulations were reevaluated for homogeneity after at least 24 h storage at room temperature (RT) to determine stability of suspensions at RT.

[8] = In vitro release of chemotherapeutic ISFIs; type: physicochemical
Description: ISFI formulations were prepared with two different chemotherapeutic drugs, paclitaxel (PTX) and gemcitabine (Gem) and investigated for in vitro release kinetics (PTX and Gem ISFIs; FIGS. 21A-21C and 22A-22B) and for in vivo safety and pharmacokinetics (PTX ISFI; FIG. 23).

[9] = DMSO, organic solvent or mixture, solvent DMSO
[10] = 167 mg/g in 6:1 w/w PLA (10 kDa):Pluronic L61, NMP
[11] = 200 mg/g in 9:1 w/w PLA (10 kDa):Pluronic L61, NMP

SMILES: Nc1ccn([C@@H]2CS[C@H](CO)O2)c(=O)n1 [3TC, lamuvidine]
- suspension formation when loaded above saturation concentration in PLGA/solvent placebo [1]: did not form successful suspensions

SMILES: C[C@H]1CO[C@@H]2Cn3cc(C(=O)NCc4ccc(F)cc4F)c(=O)c(O)c3C(=O)N12 [CAB, Cabotegravir]
- in vitro release as single-drug ISFI versus co-formulated [2]: comparable (p>0.05)
- CL [3]: 151 mL/h
- Q [3]: 507 mL/h
- V2 [3]: 5270 mL
- V3 [3]: 2430 mL
- solubility ([4]; (NMP:DMSO 1:1 w/w):Tween 20 (9:1 w/w), organic solvent or mixture, solvent (NMP:DMSO 1:1 w/w):Tween 20 (9:1 w/w)): 107 ± 3.05 mg/mL
- solubility [4, 9]: 38 mg/mL
- solubility ([4]; NMP:DMSO (2:8 w/w), organic solvent or mixture, solvent NMP:DMSO (2:8 w/w)): 52.2 ± 6.39 mg/mL
- solubility ([4]; NMP:DMSO (9:1 w/w), organic solvent or mixture, solvent NMP:DMSO (9:1 w/w)): 144 ± 1.99 mg/mL
- solubility ([4]; NMP:Gelucire 44/14 (9:1 w/w), organic solvent or mixture, solvent NMP:Gelucire 44/14 (9:1 w/w)): 134 ± 3.81 mg/mL
- solubility ([4]; NMP:HP-b-CD (6:4 w/w), organic solvent or mixture, solvent NMP:HP-b-CD (6:4 w/w)): 89.6 ± 5.49 mg/mL
- solubility ([4]; NMP:HP-b-CD (9:1 w/w), organic solvent or mixture, solvent NMP:HP-b-CD (9:1 w/w)): 158.2 ± 1.12 mg/mL
- solubility ([4]; NMP:b-CD (6:4 w/w), organic solvent or mixture, solvent NMP:b-CD (6:4 w/w)): 81.8 ± 2.35 mg/mL
- solubility ([4]; PBS, aqueous buffer, solvent PBS): 0.014 ± 0.001 mg/mL
- Saturation Solubility ([4]; solvent DMSO): 38.0 mg/mL
- Saturation Solubility ([4]; solvent NMP): 131.7 ± 3.66 mg/mL
- Saturation Solubility ([4]; solvent NMP:DMSO (1:1 w/w)): 167.12 ± 12.04 mg/mL
- Saturation Solubility ([4]; solvent PBS + 2% Solutol): 0.06 ± 0.002 mg/mL
- plasma concentrations when co-formulated with either hormone (MPA or ENG) ([5]; mouse, in vivo): no difference (p>0.05)
- suspension formation when loaded above saturation concentration in PLGA/solvent placebo [1]: formed stable syringeable formulations
- depot formation when injected into aqueous release medium [1]: formation of stable depots
- 4×PA-IC90 [6]: 0.664 µg/mL
- 1×PA-IC90 [6]: 0.166 µg/mL

SMILES: C[C@H]1CO[C@@H]2Cn3cc(C(=O)NCc4ccc(F)cc4F)c(=O)c(O)c3C(=O)N12 [CAB—Na salt, Cabotegravir sodium]
- Saturation Solubility ([4]; solvent DMSO): 31.6 ± 0.96 mg/mL
- Saturation Solubility ([4]; solvent NMP): 47.5 ± 1.72 mg/mL
- Saturation Solubility ([4]; solvent NMP:DMSO (1:1 w/w)): 49.1 ± 1.2 mg/mL
- Saturation Solubility ([4]; solvent PBS + 2% Solutol): 1.83 ± 0.7 mg/mL

SMILES: C[C@@H]1CCO[C@H]2Cn3cc(C(=O)NCc4ccc(F)cc4F)c(=O)c(O)c3C(=O)N12 [DTG, Dolutegravir]
- solubility [4, 9]: 55 ± 4.5 mg/mL
- solubility ([4]; NMP, organic solvent or mixture, solvent NMP): 269 ± 7.25 mg/mL
- solubility ([4]; NMP:DMSO (1:1 w/w), organic solvent or mixture, solvent NMP:DMSO (1:1 w/w)): 229.3 ± 1.6 mg/mL
- Saturation Solubility ([4]; solvent PBS + 2% Solutol): 0.56 ± 0.004 mg/mL
- plasma concentrations when co-formulated with either hormone (MPA or ENG) ([5]; mouse, in vivo): no difference (p>0.05)
- suspension formation when loaded above saturation concentration in PLGA/solvent placebo [1]: formed stable syringeable formulations
- depot formation when injected into aqueous release medium [1]: formation of stable depots
- 4×PA-IC90 [6]: 0.256 µg/mL
- 1×PA-IC90 [6]: 0.064 µg/mL

SMILES: C#C[C@]1(CO)O[C@@H](n2cnc3c(N)nc(F)nc32)C[C@@H]1O [EFdA, Islatravir]
- suspension formation when loaded above saturation concentration in PLGA/solvent placebo [1]: did not form successful suspensions
- depot formation when injected into aqueous release medium [1]: did not form a stable spherical depot
- 24 h-Burst [7, 10]: 64%
- Depot Forming [7, 10]: YES
- 24 h-Burst [7, 11]: 58%
- Depot Forming [7, 11]: YES

SMILES: C#C[C@]1(O)CC[C@H]2[C@@H]3CCC4=CC(=O)CC[C@@H]4[C@H]3C(=C)C[C@@]21CC [ENG, entonogestrel]
- in vitro release as single-drug ISFI versus co-formulated [2]: no difference (p>0.05)
- in vitro release as single-drug ISFI versus co-formulated with CAB ([2]; beyond 60 days): significantly different (p<0.05)
- plasma concentrations over the study ([5]; mouse, in vivo): maintained during the 90-day study

SMILES: Nc1ccn([C@@H]2O[C@H](CO)[C@@H](O)C2(F)F)c(=O)n1 [Gem, gemcitabine]
- in vitro release from ISFI [8]: exhibited sustained release in vitro

SMILES: CC(=O)O[C@]1(C(C)=O)CC[C@H]2[C@@H]3C[C@H](C)C4=CC(=O)CC[C@]4(C)[C@H]3CC[C@@]21C [MPA, medroxyprogesterone acetate]
- in vitro release as single-drug ISFI versus co-formulated [2]: difference (p<0.05)
- solubility ([4]; organic solvent or mixture, solvent NMP:DMSO (1:1 w/w)): 33.6 ± 0.9 mg/mL
- best-fit model of in vivo release ([5]; MPT ISFIs, 90-day PK): zero-order release model
- plasma concentrations over the study ([5]; in MPT ISFIs, 90-day study): maintained during the 90-day study

SMILES: CC(=O)O[C@H]1C(=O)[C@@]2(C)[C@H]([C@H](OC(=O)c3ccccc3)[C@]3(O)C[C@H](OC(=O)[C@H](O)[C@@H](NC(=O)c4ccccc4)c4ccccc4)C(C)=C1C3(C)C)[C@]1(OC(C)=O)CO[C@@H]1C[C@@H]2O [PTX, paclitaxel]
- in vitro release from ISFI [8]: exhibited sustained release in vitro
- burst release in 24 h ([8]; ISFI): < 2%
- sustained release duration ([8]; ISFI): > 60 days
